In brackets after ≈: the same amount, converted by molar mass.
What was measured:
Assay type in all cases: functional
P388 [1] = assay: Effective dose that causes inhibition of growth of P388 leukemia cells was determined; conditions: Mus musculus, read-out: ED50 (the source's name)
FaDu = assay: Inhibitory activity against growth of human pharynx cancer cell line FADU was determined
P388 [2] = assay: Inhibitory activity against growth of P388 leukemia cells was determined; conditions: Mus musculus
BXPC-3 = assay: Inhibitory activity against growth of human pancreatic cancer cell line BXPC-3 was determined
NCI-H460 = assay: Inhibitory activity against growth of human lung NSC cancer cell line NCI-H460 was determined
DU-145 [3] = assay: Inhibitory activity against growth of human prostate cancer cell line DU-145 was determined
KAT-4 cell line = assay: Inhibitory activity against growth of human thyroid cancer cell line KAT-4 was determined
SW-1736 = assay: Inhibitory activity against growth of human thyroid cancer cell line SW1736 was determined
U-251 = assay: Inhibitory activity against growth of human CNS cancer cell line U251 was determined
RPMI-7951 = assay: Inhibitory activity against growth of human melanomic cancer cell line RPMI-7951 was determined
DU-145 [4] = assay: Inhibitory activity against growth of human prostate cancer cell line DU-145 was determined.

SMILES	EC50 (P388 [1]) [µg/mL]	GI50 (FaDu) [µg/mL]	GI50 (P388 [2]) [µg/mL]	GI50 (BXPC-3) [µg/mL]	GI50 (NCI-H460) [µg/mL]	GI50 (DU-145 [3]) [µg/mL]	GI50 (KAT-4 cell line) [µg/mL]	GI50 (SW-1736) [µg/mL]	GI50 (U-251) [µg/mL]	GI50 (RPMI-7951) [µg/mL]	GI50 (DU-145 [4]) [µg/mL]
CC1(C)CCC[C@]2(C)[C@H]3C[C@@H](O)[C@]4(C)c5cocc5[C@H](O)C[C@H]4[C@]3(C)CC[C@@H]12 [SESTERSTATIN 4]	4.87 (≈ 12.6 µM)	2 (≈ 5.17 µM)	4.9 (≈ 12.7 µM)	1.6 (≈ 4.14 µM)	1.8 (≈ 4.66 µM)	1.6 (≈ 4.14 µM)	2 (≈ 5.17 µM)	2.1 (≈ 5.43 µM)			
CC1(C)CCC[C@]2(C)[C@H]3C[C@@H](O)[C@]4(C)c5cocc5[C@@H](O)C[C@H]4[C@]3(C)CC[C@@H]12 [SESTERSTATIN 5]	> 10	1.9 (≈ 4.91 µM)	> 10	2.2 (≈ 5.69 µM)	2.5 (≈ 6.47 µM)				1.9 (≈ 4.91 µM)	2.1 (≈ 5.43 µM)	1.9 (≈ 4.91 µM)
